# Patent US12532889B2, “Herbicidal compositions comprising glufosinate” (BASF SE, priority 2023, dated 2026)
# Where “and” joins values, the source holds several entries; their conditions need not be identical. Equal entries are not always repeated.
# How the values were obtained:
# Experiment in all cases: Post-emergence application in field trials (Example A)
# Assay type in all cases: in vivo
# [1] = test system: DIGSA (Digitaria sanguinalis); settings: height 10-15 cm
# Protocol: (§1) In the examples below, using the method of S. R. Colby (1967) “Calculating synergistic and antagonistic responses of herbicide combinations”, Weeds 15, p. 22ff., the value E, which is expected if the activity of the individual active compounds is only additive, was calculated:
# (§2) [formula] • where • X=percent activity using active herbicide A at an application rate a; • Y=percent activity using active herbicide B (e.g. glufosinate) at an application rate b; • E=expected activity (in %) by A+B at application rates a+b.
# (§3) If the value found experimentally is higher than the value E calculated according to Colby, a synergistic effect is present.
# (§4) On field test sites, natural weed infestation or seeded weeds were treated post-emergence of the weeds.
# (§5) In the field trials, the weeds were treated as indicated below.
# (§6) In the following experiments, the herbicidal activity for the individual herbicidal compositions (solo and mixture applications) was assessed at the indicated days after treatment (DAT). The assessments for the damage on undesired weeds caused by the composition was carried out using a scale from 0 to 100%, compared to the untreated control plants. Here, 0 means no damage and 100 means complete destruction of the plants.
# [2] = test system: ECHCG (Echinocloa crus-galli); settings: growth stage 23-30, height 15-20 cm
# Protocol: as §1, §2, §3, §4, §5, §6
# [3] = test system: HORVW (Hordeum vulgare (winter barley)); settings: growth stage 23-29, height 20-25 cm
# Protocol: as §1, §2, §3, §4, §5, §6
# [4] = test system: LOLMU (Lolium multiflorum); settings: growth stage 22-25, height 20-25 cm
# Protocol: as §1, §2, §3, §4, §5, §6
# GLXMA (Glycine max) = settings: 42 DAT, growth stage 13, height 5-10 cm
# Protocol: as §1, §2, §3, §4, §5, §6
# ZEAMX (Zea mays) = settings: C-4 12.5 g ai/ha, growth stage 15-16
# Protocol: as §1, §2, §3, §4, §5, §6
# [5] = test system: SETVE (Setaria verticillata); settings: 42 DAT; C-4 12.5 g ai/ha; growth stage 21-23; height 8-16 cm
# Protocol: as §1, §2, §3, §4, §5, §6
smiles,measurement,setting,value
"CC(C)N(C)S(=O)(=O)NC(=O)c1cc(-n2c(=O)cc(C(F)(F)F)n(C)c2=O)c(F)cc1Cl [C-1, saflufenacil]",% Herbicidal activity,"[1]; 20 DAT, C-1 12.5 g ai/ha, growth stage 21-22",20%
same,% Herbicidal activity,"[2]; 7 DAT, C-1 12.5 g ai/ha",20%
same,% Herbicidal activity,"[2]; 28 DAT, C-1 12.5 g ai/ha",20%
same,% Herbicidal activity,"[3]; 7 DAT, C-1 12.5 g ai/ha",20%
same,% Herbicidal activity,"[4]; 7 DAT, C-1 12.5 g ai/ha",20%
same,% Herbicidal activity,"[4]; 28 DAT, C-1 12.5 g ai/ha",20%
same,% Herbicidal activity,GLXMA (Glycine max); C-1 12.5 g ai/ha,60%
"C#CCN1C(=O)C(F)(F)Oc2cc(F)c(-n3c(=O)n(C)c(=S)n(C)c3=O)cc21 [C-4, trifludimoxazin]",% Herbicidal activity,"ZEAMX (Zea mays); 21 DAT, height 27-33 cm",30%
same,% Herbicidal activity,"ZEAMX (Zea mays); 28 DAT, height 50-60 cm",30%
same,% Herbicidal activity,"ZEAMX (Zea mays); 42 DAT, height 27-33 cm",25% and 20%
same,% Herbicidal activity,"[1]; 7 DAT, C-4 12.5 g ai/ha, growth stage 22",40%
same,% Herbicidal activity,"[1]; 21 DAT, C-4 12.5 g ai/ha, growth stage 22",40%
same,% Herbicidal activity,"[1]; 41 DAT, C-4 12.5 g ai/ha, growth stage 22",25%
same,% Herbicidal activity,"[1]; 42 DAT, C-4 12.5 g ai/ha, growth stage 22",25%
same,% Herbicidal activity,"[2]; 7 DAT, C-4 12.5 g ai/ha",40%
same,% Herbicidal activity,"[2]; 21 DAT, C-4 12.5 g ai/ha",20%
same,% Herbicidal activity,"[2]; 28 DAT, C-4 12.5 g ai/ha",40% and 20%
same,% Herbicidal activity,[5],25%
same,% Herbicidal activity,"[3]; 7 DAT, C-4 12.5 g ai/ha",40% and 30%
same,% Herbicidal activity,"[3]; 21 DAT, C-4 12.5 g ai/ha",30%
same,% Herbicidal activity,"[4]; 7 DAT, C-4 12.5 g ai/ha",40%
same,% Herbicidal activity,"[4]; 28 DAT, C-4 12.5 g ai/ha",30%
same,% Herbicidal activity,GLXMA (Glycine max); C-4 12.5 g ai/ha,60%
